What was measured:
Glutamate NMDA receptor [1] = experiment: Displacement of [3H]CGP 39653 from NMDA receptor in rat synaptosomes; format: subcellular, Brain
[2] = Activity at ionotropic GluR in rat cortical wedge by electrophysiology assay
[3] = biological target: Glutamate receptor ionotropic, kainate 2 (Rattus norvegicus, UniProt P42260); experiment: Displacement of [3H]KA from rat recombinant GluR6 expressed in Sf9 cells
[4] = Displacement of [3H]AMPA from AMPA receptor in rat synaptosomes; format: subcellular, Brain
Glutamate receptor 1 = Glutamate receptor 1 (Rattus norvegicus, UniProt P19490); experiment: biochemical
Description: Displacement of [3H]AMPA from rat recombinant GluR1 expressed in Sf9 cells

Glutamate receptor 3 = Glutamate receptor 3 (Rattus norvegicus, UniProt P19492); experiment: biochemical
Description: Displacement of [3H]AMPA from rat recombinant GluR3 expressed in Sf9 cells

Glutamate receptor 2 = Glutamate receptor 2 (Rattus norvegicus, UniProt P19491); experiment: biochemical
Description: Displacement of [3H]AMPA from rat recombinant GluR2 expressed in Sf9 cells

[5] = biological target: Glutamate receptor ionotropic, kainate 1 (Rattus norvegicus, UniProt P22756); experiment: biochemical
Description: Displacement of [3H]SYM 2081 from rat recombinant GluR5 expressed in Sf9 cells

Glutamate receptor 4 = Glutamate receptor 4 (Rattus norvegicus, UniProt P19493); experiment: biochemical
Description: Displacement of [3H]AMPA from rat recombinant GluR4 expressed in Sf9 cells

[6] = Displacement of [3H]KA from kainate receptor in rat synaptosomes; format: subcellular, Brain
Glutamate NMDA receptor [7] = experiment: Displacement of [3H][…] from NMDA receptor in rat synaptosomes; format: subcellular, Brain
[8] = Agonist activity at GluR2 L483Y mutant expressed in Xenopus laevis oocytes assessed as by effect on glutamate-induced current relative to glutamate; format: functional, Homo sapiens, Oocyte
[9] = Agonist activity at GluR2 L483Y mutant expressed in Xenopus laevis oocytes assessed as by effect on glutamate-induced current by two-electrode voltage clamp assay; format: functional, cell-based; settings: Homo sapiens, Oocyte

Glutamate receptor ionotropic, kainate 2, sequence (P42260 whole entry): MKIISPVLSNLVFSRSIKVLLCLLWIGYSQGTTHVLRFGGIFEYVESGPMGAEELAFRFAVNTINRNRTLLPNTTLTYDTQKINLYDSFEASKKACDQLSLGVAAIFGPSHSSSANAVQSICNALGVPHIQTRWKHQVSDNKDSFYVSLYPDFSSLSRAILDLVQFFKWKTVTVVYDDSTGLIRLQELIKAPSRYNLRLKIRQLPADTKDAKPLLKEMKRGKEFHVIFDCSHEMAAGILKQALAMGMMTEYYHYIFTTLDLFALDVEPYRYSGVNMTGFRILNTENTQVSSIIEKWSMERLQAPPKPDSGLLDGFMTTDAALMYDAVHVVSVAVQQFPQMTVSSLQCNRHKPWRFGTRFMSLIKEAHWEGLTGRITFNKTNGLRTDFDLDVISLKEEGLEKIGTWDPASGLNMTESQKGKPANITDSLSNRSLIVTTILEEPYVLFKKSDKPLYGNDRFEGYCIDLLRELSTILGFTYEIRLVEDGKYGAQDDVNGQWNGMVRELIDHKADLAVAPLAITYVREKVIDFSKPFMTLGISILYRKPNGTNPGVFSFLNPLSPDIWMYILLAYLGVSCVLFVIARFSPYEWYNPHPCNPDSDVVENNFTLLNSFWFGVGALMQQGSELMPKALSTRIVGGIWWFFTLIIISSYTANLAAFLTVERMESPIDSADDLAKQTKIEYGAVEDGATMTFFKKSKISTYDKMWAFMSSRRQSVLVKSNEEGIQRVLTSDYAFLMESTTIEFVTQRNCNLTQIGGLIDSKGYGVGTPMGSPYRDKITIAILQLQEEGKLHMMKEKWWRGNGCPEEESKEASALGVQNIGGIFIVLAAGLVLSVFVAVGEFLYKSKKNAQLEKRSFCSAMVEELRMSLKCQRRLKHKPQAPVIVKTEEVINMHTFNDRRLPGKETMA
Glutamate receptor 1, sequence (P19490 whole entry): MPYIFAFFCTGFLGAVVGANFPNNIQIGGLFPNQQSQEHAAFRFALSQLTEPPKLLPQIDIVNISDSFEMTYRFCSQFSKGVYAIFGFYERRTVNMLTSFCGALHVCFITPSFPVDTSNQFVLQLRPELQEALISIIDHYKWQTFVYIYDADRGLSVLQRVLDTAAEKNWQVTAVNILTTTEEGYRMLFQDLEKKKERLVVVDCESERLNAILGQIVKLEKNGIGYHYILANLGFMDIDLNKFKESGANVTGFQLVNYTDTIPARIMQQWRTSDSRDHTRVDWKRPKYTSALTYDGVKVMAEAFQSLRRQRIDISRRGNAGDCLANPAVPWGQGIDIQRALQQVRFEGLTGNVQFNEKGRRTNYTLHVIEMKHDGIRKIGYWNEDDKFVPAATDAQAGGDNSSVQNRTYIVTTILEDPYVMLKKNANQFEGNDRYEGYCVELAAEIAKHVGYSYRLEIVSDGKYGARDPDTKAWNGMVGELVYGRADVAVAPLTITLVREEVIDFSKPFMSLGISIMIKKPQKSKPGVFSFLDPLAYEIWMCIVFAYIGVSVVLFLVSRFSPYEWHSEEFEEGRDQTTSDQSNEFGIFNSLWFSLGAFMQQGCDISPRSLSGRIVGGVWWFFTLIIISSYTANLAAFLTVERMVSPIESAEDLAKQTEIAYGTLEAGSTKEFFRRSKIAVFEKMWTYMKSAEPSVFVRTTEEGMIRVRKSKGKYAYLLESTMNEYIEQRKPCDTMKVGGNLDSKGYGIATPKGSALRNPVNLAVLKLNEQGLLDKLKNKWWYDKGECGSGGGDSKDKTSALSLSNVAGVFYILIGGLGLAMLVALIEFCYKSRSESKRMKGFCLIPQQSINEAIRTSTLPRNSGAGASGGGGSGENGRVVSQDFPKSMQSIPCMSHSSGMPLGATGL
Glutamate receptor 2, sequence (P19491 whole entry): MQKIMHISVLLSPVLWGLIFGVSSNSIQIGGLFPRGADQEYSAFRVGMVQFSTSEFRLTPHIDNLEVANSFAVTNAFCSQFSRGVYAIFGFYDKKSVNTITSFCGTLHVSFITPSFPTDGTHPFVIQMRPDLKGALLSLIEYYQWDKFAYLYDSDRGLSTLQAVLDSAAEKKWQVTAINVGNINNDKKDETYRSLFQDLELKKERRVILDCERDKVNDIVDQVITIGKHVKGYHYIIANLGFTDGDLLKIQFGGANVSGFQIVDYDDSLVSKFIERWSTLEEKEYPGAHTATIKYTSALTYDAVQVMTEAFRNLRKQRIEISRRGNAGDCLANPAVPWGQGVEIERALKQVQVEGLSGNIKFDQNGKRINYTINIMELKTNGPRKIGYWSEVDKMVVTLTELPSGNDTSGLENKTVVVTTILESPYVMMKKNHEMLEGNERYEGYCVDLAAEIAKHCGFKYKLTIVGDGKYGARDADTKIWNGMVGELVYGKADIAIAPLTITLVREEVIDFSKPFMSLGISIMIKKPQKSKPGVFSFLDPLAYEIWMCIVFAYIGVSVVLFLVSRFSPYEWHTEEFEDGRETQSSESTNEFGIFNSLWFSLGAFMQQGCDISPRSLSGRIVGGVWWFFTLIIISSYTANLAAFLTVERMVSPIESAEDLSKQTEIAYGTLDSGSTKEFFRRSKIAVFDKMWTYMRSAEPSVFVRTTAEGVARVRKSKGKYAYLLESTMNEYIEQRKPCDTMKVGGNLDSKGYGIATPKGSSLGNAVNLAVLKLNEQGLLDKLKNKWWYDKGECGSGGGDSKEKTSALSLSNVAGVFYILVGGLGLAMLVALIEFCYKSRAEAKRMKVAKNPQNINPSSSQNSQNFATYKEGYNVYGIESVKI
Glutamate receptor ionotropic, kainate 1, sequence (P22756 whole entry): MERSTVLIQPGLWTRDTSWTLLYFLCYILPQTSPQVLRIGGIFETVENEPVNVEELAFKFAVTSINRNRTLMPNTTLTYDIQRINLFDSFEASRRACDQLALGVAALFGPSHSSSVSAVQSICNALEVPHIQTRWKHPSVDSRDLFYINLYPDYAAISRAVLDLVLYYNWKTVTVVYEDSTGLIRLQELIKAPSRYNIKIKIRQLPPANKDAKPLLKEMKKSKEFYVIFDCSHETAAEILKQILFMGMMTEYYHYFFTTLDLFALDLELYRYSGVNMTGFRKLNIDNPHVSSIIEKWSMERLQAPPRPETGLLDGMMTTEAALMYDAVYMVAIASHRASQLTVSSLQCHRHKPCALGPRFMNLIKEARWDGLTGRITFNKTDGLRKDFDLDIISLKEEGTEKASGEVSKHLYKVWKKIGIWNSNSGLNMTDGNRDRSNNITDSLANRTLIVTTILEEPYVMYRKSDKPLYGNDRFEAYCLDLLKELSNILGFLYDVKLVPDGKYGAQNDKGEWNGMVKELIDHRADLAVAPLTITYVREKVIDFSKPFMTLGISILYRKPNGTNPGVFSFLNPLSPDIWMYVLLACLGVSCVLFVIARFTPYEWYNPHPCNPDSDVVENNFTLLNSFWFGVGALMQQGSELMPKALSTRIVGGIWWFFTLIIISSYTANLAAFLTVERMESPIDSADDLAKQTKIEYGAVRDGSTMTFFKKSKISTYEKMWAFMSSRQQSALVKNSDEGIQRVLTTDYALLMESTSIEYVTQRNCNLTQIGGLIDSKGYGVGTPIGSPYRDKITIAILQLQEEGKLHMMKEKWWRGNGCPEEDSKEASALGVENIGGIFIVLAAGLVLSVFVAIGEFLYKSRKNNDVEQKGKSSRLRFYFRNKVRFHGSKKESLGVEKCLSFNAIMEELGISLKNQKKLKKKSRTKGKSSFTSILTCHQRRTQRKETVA
Glutamate receptor 3, sequence (P19492 whole entry): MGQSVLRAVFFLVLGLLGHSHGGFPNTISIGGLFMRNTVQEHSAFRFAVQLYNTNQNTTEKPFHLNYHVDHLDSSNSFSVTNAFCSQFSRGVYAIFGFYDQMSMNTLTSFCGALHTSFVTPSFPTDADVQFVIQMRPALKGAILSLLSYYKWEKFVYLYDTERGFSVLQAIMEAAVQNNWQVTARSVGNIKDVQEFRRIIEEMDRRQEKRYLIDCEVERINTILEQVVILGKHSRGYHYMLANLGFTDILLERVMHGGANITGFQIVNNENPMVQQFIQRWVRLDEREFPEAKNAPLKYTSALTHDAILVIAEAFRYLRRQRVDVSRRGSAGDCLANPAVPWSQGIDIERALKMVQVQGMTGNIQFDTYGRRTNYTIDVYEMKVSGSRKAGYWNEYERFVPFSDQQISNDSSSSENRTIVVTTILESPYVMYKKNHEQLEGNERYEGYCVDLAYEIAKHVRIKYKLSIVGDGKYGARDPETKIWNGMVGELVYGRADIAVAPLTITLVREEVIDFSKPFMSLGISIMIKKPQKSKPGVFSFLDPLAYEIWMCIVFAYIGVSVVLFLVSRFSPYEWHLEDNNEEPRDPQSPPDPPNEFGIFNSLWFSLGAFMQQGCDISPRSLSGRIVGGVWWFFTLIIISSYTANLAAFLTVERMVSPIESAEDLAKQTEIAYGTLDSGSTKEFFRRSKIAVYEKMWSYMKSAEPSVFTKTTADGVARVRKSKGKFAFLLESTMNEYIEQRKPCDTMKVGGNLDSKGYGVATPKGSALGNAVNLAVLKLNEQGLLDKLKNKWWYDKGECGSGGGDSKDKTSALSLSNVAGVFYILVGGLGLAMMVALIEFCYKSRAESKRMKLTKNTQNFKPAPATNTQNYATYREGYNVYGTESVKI

Compound	Ki (Glutamate NMDA receptor [1]) [µM]	EC50 [2] [µM]	Ki [3] [µM]	IC50 [4] [µM]	Ki (Glutamate receptor 1) [µM]	Ki (Glutamate receptor 3) [µM]	Ki (Glutamate receptor 2) [µM]	Ki [5] [µM]	Ki (Glutamate receptor 4) [µM]	IC50 [6] [µM]	Ki (Glutamate NMDA receptor [7]) [µM]	Activity [8] [%]	EC50 [9] [µM]
CC(C)n1nnc(-c2onc(O)c2CC(N)C(=O)O)n1 (stereo not given)	> 100	71	> 100	6.2	0.01	3.7	2.9	31	2.4	> 100	–	–	–
CCn1nnc(-c2onc(O)c2CC(N)C(=O)O)n1 (stereo not given)	> 100	3.5	> 100	0.13	0.15	0.045	0.08	2.9	0.044	> 100	–	–	–
NC(Cc1c(O)noc1-c1nnnn1Cc1ccccc1)C(=O)O (racemic)	> 100	–	–	> 100	–	–	–	–	–	> 100	–	–	–
Cn1nnc(-c2onc(O)c2C[C@H](N)C(=O)O)n1	–	–	19	0.009	–	–	0.0039	8.1e-05	0.0027	11	> 100	–	–
Cc1onc(O)c1CC(N)C(=O)O (racemic) [(R,S)-AMPA]	–	–	> 1000	–	–	–	–	–	–	> 100	–	–	–
CCCn1nnc(-c2onc(O)c2CC(N)C(=O)O)n1 (stereo not given)	> 100	32	> 100	2.5	0.0052	1.2	1.6	5.5	0.73	> 100	–	–	–
NC(Cc1c(O)noc1-c1nnn(Cc2ccccc2)n1)C(=O)O (racemic)	87	32	39	2.7	–	–	–	58	–	> 100	–	84	95

Source: ChEMBL document CHEMBL1139881, “A tetrazolyl-substituted subtype-selective AMPA receptor agonist” (J Med Chem, 2007)
